Measurements reported in patent US10131652B2, “Pyrimidinyloxy benzene derivatives as herbicides” (E. I. DU PONT DE NEMOURS AND COMPANY, priority 2014, dated 2018).

Columns and labels:
Format in all cases: in vivo
[1] = tested on: Italian ryegrass (Lolium multiflorum); assay: Test B pre-/postemergence plant response
Description: (§1) Seeds of plant species selected from bamyardgrass (Echinochloa crus-galli), kochia (Kochia scoparia), ragweed (common ragweed, Ambrosia elatior), Italian ryegrass (Lolium multiflorum), large (Lg) crabgrass (Digitaria sanguinalis), giant foxtail (Setaria faberii), momingglory (Ipomoea spp.), pigweed (Amaranthus retroflexus), velvetleaf (Abutilon theophrasti), wheat (Triticum aestivum), and corn (Zea mays) were planted into a blend of loam soil and sand and treated preemergence with a directed soil spray using test chemicals formulated in a non-phytotoxic solvent mixture which included a surfactant. At the same time, plants selected from these crop and weed species and also blackgrass (Alopecurus myosuroides), and galium (catchweed bedstraw, Galium aparine) were planted in pots containing the same blend of loam soil and sand and treated with postemergence applications of test chemicals formulated in the same manner. Plants ranged in height from 2 to 10 cm and were in the one- to two-leaf stage for the postemergence treatment. Treated plants and untreated controls were maintained in a greenhouse for approximately 10 days, after which time all treated plants were compared to untreated controls and visually evaluated for injury. Plant response ratings, summarized in Table B, are based on a 0 to 100 scale where 0 is no effect and 100 is complete control. A dash (-) response means no test result.

[2] = tested on: barnyardgrass (Echinochloa crus-galli); assay: Test B pre-/postemergence plant response
Description: as §1

corn (Zea mays) = assay: Test B pre-/postemergence plant response
Description: as §1

[3] = tested on: giant foxtail (Setaria faberii); assay: Test B pre-/postemergence plant response
Description: as §1

kochia (Kochia scoparia) = assay: Test B pre-/postemergence plant response
Description: as §1

[4] = tested on: pigweed (Amaranthus retroflexus); assay: Test B pre-/postemergence plant response
Description: as §1

[5] = tested on: ragweed (common ragweed, Ambrosia elatior); assay: Test B pre-/postemergence plant response
Description: as §1

[6] = tested on: wheat (Triticum aestivum); assay: Test B pre-/postemergence plant response
Description: as §1

[7] = tested on: blackgrass (Alopecurus myosuroides); assay: Test B postemergence plant response
Description: (§2) At the same time, plants selected from these crop and weed species and also blackgrass (Alopecurus myosuroides), and galium (catchweed bedstraw, Galium aparine) were planted in pots containing the same blend of loam soil and sand and treated with postemergence applications of test chemicals formulated in the same manner. Plants ranged in height from 2 to 10 cm and were in the one- to two-leaf stage for the postemergence treatment. Treated plants and untreated controls were maintained in a greenhouse for approximately 10 days, after which time all treated plants were compared to untreated controls and visually evaluated for injury. Plant response ratings, summarized in Table B, are based on a 0 to 100 scale where 0 is no effect and 100 is complete control. A dash (-) response means no test result.

[8] = tested on: galium (catchweed bedstraw, Galium aparine); assay: Test B postemergence plant response
Description: as §2

[9] = tested on: barnyardgrass (Echinochloa crus-galli); assay: Test C flooded paddy test plant response; conditions: Flood, 250 g ai/ha; scale of 0 to 100 where 0 is no effect and 100 is complete control; 13 to 15 days
Procedure: (§3) Plant species in the flooded paddy test selected from rice (Oryza sativa), small-flower umbrella sedge (Cyperus difformis), ducksalad (Heteranthera limosa), and bamyardgrass (Echinochloa crus-galli) were grown to the 2-leaf stage for testing. At time of treatment, test pots were flooded to 3 cm above the soil surface, treated by application of test compounds directly to the paddy water, and then maintained at that water depth for the duration of the test. Treated plants and controls were maintained in a greenhouse for 13 to 15 days, after which time all species were compared to controls and visually evaluated. Plant response ratings, summarized in Table C, are based on a scale of 0 to 100 where 0 is no effect and 100 is complete control. A dash (-) response means no test result.

[10] = tested on: ducksalad (Heteranthera limosa); assay: Test C flooded paddy test plant response; conditions: Flood, 250 g ai/ha; scale of 0 to 100 where 0 is no effect and 100 is complete control; 13 to 15 days
Procedure: as §3

rice (Oryza sativa) = assay: Test C flooded paddy test plant response; conditions: Flood, 250 g ai/ha; scale of 0 to 100 where 0 is no effect and 100 is complete control; 13 to 15 days
Procedure: as §3

[11] = tested on: small-flower umbrella sedge (Cyperus difformis); assay: Test C flooded paddy test plant response; conditions: Flood, 250 g ai/ha; scale of 0 to 100 where 0 is no effect and 100 is complete control; 13 to 15 days
Procedure: as §3

[12] = 125 g ai/ha, postemergence, 0 to 100 scale, 0 no effect, 100 complete control
[13] = Postemergence, 500 g ai/ha, 0 to 100 scale (0 no effect, 100 complete control)
[14] = Preemergence, 125 g ai/ha, 0 to 100 scale where 0 is no effect and 100 is complete control
[15] = Preemergence, 500 g ai/ha, 0 to 100 scale where 0 is no effect and 100 is complete control
[16] = 31 g ai/ha, Postemergence, 0 to 100 scale, 0 no effect, 100 complete control
[17] = Preemergence, 31 g ai/ha, 0 to 100 scale (0 no effect, 100 complete control)

SMILES	Plant response rating, Ryegrass, Italian [1, 12]	Plant response rating, Ryegrass, Italian [1, 14]	Plant response rating, Barnyardgrass [2, 12]	Plant response rating, Barnyardgrass [2, 14]	Plant response rating, Corn (corn (Zea mays); [12])	Plant response rating, Foxtail, Giant [3, 12]	Plant response rating, Foxtail, Giant [3, 14]	Plant response rating, Kochia (kochia (Kochia scoparia); [12])	Plant response rating, Kochia (kochia (Kochia scoparia); [14])	Plant response rating, Pigweed [4, 12]	Plant response rating, Pigweed [4, 14]	Plant response rating, Ragweed [5, 12]	Plant response rating, Ragweed [5, 14]	Plant response rating, Wheat [6, 12]	Plant response rating, Blackgrass [7, 12]	Plant response rating, Galium [8, 12]	Barnyardgrass plant response rating [9]	Ducksalad plant response rating [10]	Rice plant response rating (rice (Oryza sativa))	Sedge, Umbrella plant response rating [11]	also measured
Cn1nncc1-c1ccccc1Oc1ncc(Cl)cn1 [Compound 52]	0	0	0	0	0	0	0	20	0	30	40	20	0	0	0	40	0	0	0	0	Plant response rating, Ryegrass, Italian [1, 13]: 0; Plant response rating, Ryegrass, Italian [1, 15]: 0; Plant response rating, Barnyardgrass [2, 13]: 10; Plant response rating, Barnyardgrass [2, 15]: 0; Plant response rating, Corn (corn (Zea mays); [13]): 10; Plant response rating, Foxtail, Giant [3, 13]: 0; Plant response rating, Foxtail, Giant [3, 15]: 0; Plant response rating, Kochia (kochia (Kochia scoparia); [13]): 50; Plant response rating, Kochia (kochia (Kochia scoparia); [15]): 30; Plant response rating, Pigweed [4, 13]: 60; Plant response rating, Pigweed [4, 15]: 50; Plant response rating, Ragweed [5, 13]: 20; Plant response rating, Ragweed [5, 15]: 0; Plant response rating, Wheat [6, 13]: 20; Plant response rating, Blackgrass [7, 13]: 10; Plant response rating, Galium [8, 13]: 50
CC(C)(C)c1cc(-c2ccccc2Oc2ncc(Cl)cn2)no1 [Compound 59]	0	0	10	0	0	10	10	0	0	40	0	0	0	0	0	40	0	0	0	0	Plant response rating, Ryegrass, Italian [1, 13]: 0; Plant response rating, Ryegrass, Italian [1, 15]: 0; Plant response rating, Barnyardgrass [2, 13]: 10; Plant response rating, Barnyardgrass [2, 15]: 10; Plant response rating, Corn (corn (Zea mays); [13]): 10; Plant response rating, Foxtail, Giant [3, 13]: 50; Plant response rating, Foxtail, Giant [3, 15]: 60; Plant response rating, Kochia (kochia (Kochia scoparia); [13]): 20; Plant response rating, Kochia (kochia (Kochia scoparia); [15]): 0; Plant response rating, Pigweed [4, 13]: 50; Plant response rating, Pigweed [4, 15]: 30; Plant response rating, Ragweed [5, 13]: 0; Plant response rating, Ragweed [5, 15]: 0; Plant response rating, Wheat [6, 13]: 10; Plant response rating, Blackgrass [7, 13]: 40; Plant response rating, Galium [8, 13]: 90
Cc1nc(-c2ccccc2Oc2ncc(Cl)cn2)co1 [Compound 70]	0	0	0	0	0	0	0	0	0	20	0	0	0	0	0	0	0	0	0	0	Plant response rating, Ryegrass, Italian [1, 16]: 0; Ryegrass, Italian plant response rating [1, 17]: 0; Plant response rating, Barnyardgrass [2, 16]: 0; Barnyardgrass plant response rating [2, 17]: 0; Plant response rating, Corn (corn (Zea mays); [16]): 0; Plant response rating, Foxtail, Giant [3, 16]: 0; Foxtail, Giant plant response rating [3, 17]: 0; Plant response rating, Kochia (kochia (Kochia scoparia); [16]): 0; Kochia plant response rating (kochia (Kochia scoparia); [17]): 0; Plant response rating, Pigweed [4, 16]: 10; Pigweed plant response rating [4, 17]: 0; Plant response rating, Ragweed [5, 16]: 0; Ragweed plant response rating [5, 17]: 0; Plant response rating, Wheat [6, 16]: 0; Plant response rating, Blackgrass [7, 16]: 0; Plant response rating, Galium [8, 16]: 0
CC(C)n1cnc(-c2ccccc2Oc2ncc(Cl)cn2)n1 [Compound 73]	0	0	0	0	0	0	0	0	0	10	0	0	0	0	0	10	0	0	0	0	Plant response rating, Ryegrass, Italian [1, 16]: 0; Ryegrass, Italian plant response rating [1, 17]: 0; Plant response rating, Barnyardgrass [2, 16]: 0; Barnyardgrass plant response rating [2, 17]: 0; Plant response rating, Corn (corn (Zea mays); [16]): 0; Plant response rating, Foxtail, Giant [3, 16]: 0; Foxtail, Giant plant response rating [3, 17]: 0; Plant response rating, Kochia (kochia (Kochia scoparia); [16]): 0; Kochia plant response rating (kochia (Kochia scoparia); [17]): 0; Plant response rating, Pigweed [4, 16]: 0; Pigweed plant response rating [4, 17]: 0; Plant response rating, Ragweed [5, 16]: 0; Ragweed plant response rating [5, 17]: 0; Plant response rating, Wheat [6, 16]: 0; Plant response rating, Blackgrass [7, 16]: 0; Plant response rating, Galium [8, 16]: 0
CCn1nc(C(F)(F)F)cc1-c1c(C#N)cccc1Oc1ncc(Cl)cn1 [Compound 89]	0	0	30	70	30	40	90	70	0	90	100	10	0	0	20	50	0	30	0	80	Plant response rating, Ryegrass, Italian [1, 16]: 0; Ryegrass, Italian plant response rating [1, 17]: 0; Plant response rating, Barnyardgrass [2, 16]: 10; Barnyardgrass plant response rating [2, 17]: 10; Plant response rating, Corn (corn (Zea mays); [16]): 10; Plant response rating, Foxtail, Giant [3, 16]: 10; Foxtail, Giant plant response rating [3, 17]: 40; Plant response rating, Kochia (kochia (Kochia scoparia); [16]): 50; Kochia plant response rating (kochia (Kochia scoparia); [17]): 0; Plant response rating, Pigweed [4, 16]: 60; Pigweed plant response rating [4, 17]: 100; Plant response rating, Ragweed [5, 16]: 10; Ragweed plant response rating [5, 17]: 0; Plant response rating, Wheat [6, 16]: 0; Plant response rating, Blackgrass [7, 16]: 10; Plant response rating, Galium [8, 16]: 10
